Results: US7998989B2, “2-Imino-1,3-thiazoline-based compounds and T-type calcium channel inhibitors containing the same” (Korea Institute of Science and Technology, priority 2007, dated 2011)

What was measured:
[1] = biological target: T1, α1G T-type calcium channel (Homo sapiens, UniProt O43497); test: Assay for % inhibiting activity against T-type calcium channel using FDSS6000 (fluo-3 calcium imaging, KCl activation); format: cell-based; settings: HEK293, 10 μM; HEK293 cells stably expressing α1G T-type calcium channel and Kir2.1; compounds of the examples; read-out: FDSS (% inhibition)/10uM
T1 construct: host or cells: HEK293
Summary of the method: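 HEK293 cells stably expressing α1G and Kir2.1 loaded with 5 μM fluo-3/AM, then in HEPES buffer (pH 7.4) with 10 mM CaCl2. Compound applied 75 s before 75 mM KCl; intracellular Ca2+ read as […] area, % inhibition relative to untreated control.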

T1 sequence (O43497 whole entry): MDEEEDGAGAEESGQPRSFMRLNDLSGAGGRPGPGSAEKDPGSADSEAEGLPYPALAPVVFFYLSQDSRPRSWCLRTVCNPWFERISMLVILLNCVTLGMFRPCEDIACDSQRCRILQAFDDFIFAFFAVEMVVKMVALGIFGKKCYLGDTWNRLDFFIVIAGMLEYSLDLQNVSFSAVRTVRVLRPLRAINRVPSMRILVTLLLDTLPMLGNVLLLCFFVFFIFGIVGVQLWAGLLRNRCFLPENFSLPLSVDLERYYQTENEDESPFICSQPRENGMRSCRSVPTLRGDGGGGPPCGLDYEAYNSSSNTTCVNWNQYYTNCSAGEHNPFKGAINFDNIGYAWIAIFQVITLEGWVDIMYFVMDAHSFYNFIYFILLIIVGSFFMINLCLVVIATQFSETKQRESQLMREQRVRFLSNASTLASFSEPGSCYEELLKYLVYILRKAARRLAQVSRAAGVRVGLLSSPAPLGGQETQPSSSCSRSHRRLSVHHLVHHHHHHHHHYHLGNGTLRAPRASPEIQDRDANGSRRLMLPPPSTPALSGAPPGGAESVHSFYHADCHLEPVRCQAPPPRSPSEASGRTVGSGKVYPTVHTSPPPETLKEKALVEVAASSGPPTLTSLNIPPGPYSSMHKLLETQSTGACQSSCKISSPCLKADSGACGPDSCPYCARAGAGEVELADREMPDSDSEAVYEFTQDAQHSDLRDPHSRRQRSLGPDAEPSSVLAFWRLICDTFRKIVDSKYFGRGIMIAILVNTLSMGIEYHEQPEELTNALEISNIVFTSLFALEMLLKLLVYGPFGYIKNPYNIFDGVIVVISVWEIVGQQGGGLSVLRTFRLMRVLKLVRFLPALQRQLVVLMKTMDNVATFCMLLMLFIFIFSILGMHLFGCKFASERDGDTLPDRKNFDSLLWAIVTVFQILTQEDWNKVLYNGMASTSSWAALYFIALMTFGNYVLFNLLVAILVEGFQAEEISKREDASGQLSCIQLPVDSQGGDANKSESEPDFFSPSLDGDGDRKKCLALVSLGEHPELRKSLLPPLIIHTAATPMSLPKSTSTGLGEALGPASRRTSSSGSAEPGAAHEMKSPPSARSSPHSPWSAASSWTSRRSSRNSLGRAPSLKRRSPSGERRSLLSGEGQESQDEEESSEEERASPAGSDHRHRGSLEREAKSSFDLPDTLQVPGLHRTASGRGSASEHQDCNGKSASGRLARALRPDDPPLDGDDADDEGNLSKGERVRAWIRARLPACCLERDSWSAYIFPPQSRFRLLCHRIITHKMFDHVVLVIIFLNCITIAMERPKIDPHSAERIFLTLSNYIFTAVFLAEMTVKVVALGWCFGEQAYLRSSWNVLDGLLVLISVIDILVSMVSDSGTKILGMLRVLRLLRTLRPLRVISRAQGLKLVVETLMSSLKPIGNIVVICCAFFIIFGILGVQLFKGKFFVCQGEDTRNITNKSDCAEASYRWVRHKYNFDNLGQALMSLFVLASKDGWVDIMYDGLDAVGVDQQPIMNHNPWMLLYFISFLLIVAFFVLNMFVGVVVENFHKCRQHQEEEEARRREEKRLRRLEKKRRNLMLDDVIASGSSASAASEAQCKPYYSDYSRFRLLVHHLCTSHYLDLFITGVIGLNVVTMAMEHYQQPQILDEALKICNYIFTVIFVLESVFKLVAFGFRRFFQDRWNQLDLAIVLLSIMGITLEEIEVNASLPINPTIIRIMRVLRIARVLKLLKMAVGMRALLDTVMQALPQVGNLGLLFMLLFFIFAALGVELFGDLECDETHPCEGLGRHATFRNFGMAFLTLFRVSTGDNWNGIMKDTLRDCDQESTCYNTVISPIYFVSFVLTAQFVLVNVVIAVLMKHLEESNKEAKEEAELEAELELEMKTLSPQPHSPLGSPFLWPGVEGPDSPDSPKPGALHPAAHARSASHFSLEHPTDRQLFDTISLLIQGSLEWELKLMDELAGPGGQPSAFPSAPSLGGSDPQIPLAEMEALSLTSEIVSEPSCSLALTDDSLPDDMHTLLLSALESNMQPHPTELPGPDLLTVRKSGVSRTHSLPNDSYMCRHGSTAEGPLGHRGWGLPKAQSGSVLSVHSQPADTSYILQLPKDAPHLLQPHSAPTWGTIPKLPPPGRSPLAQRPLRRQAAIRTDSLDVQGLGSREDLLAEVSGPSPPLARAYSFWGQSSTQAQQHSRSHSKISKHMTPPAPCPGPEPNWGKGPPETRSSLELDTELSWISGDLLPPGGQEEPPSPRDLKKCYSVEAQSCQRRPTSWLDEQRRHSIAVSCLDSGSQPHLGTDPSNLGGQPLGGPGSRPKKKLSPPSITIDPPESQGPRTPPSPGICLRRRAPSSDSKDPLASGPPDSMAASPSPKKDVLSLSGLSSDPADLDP

inhibition at 10 µM [1] | melting point | Compound
32.7% | 135 °C | CCCN1C(=NC23CC4CC(CC(C4)C2)C3)SCC1CC(=O)Nc1ccc(Oc2ccccc2)cc1.Cl (stereo not drawn) [KHG24815, [2-(1-adamantylimino)-3-n-propyl-1,3-thiazolidine-4-yl]-N-(4-phenoxyphenyl)-acetamide hydrochloride]
60.5% | 130 °C | CCCN1C(=NC23CC4CC(CC(C4)C2)C3)SCC1CC(=O)Nc1cc(Cl)ccc1F.Cl (stereo not drawn) [KHG24817, [2-(1-adamantylimino)-3-n-propyl-1,3-thiazolidine-4-yl]-N-(5-chloro-2-fluorophenyl)-acetamide hydrochloride]
68.2% | 201 °C | CCCN1C(=NC23CC4CC(CC(C4)C2)C3)SCC1CC(=O)Nc1ccc(C)cc1Cl.Cl (stereo not drawn) [KHG24818, [2-(1-adamantylimino)-3-n-propyl-1,3-thiazolidine-4-yl]-N-(2-chloro-4-methylphenyl)-acetamide hydrochloride]
69.2% | 158 °C | CCN1C(=NC23CC4CC(CC(C4)C2)C3)SCC1CC(=O)Nc1ccc(C(C)C)cc1.Cl (stereo not drawn) [KHG24819, [2-(1-adamantylimino)-3-ethyl-1,3-thiazolidine-4-yl]-N-(4-isopropylphenyl)-acetamide hydrochloride]
58% | 141 °C | CCCCc1ccc(NC(=O)CC2CSC(=NC34CC5CC(CC(C5)C3)C4)N2CC)cc1.Cl (stereo not drawn) [KHG24820, [2-(1-adamantylimino)-3-ethyl-1,3-thiazolidine-4-yl]-N-(4-n-butylphenyl)-acetamide hydrochloride]
54.1% | 236 °C | CC(C)N1C(=NC23CC4CC(CC(C4)C2)C3)SCC1CC(=O)Nc1ccc(Cl)cc1.Cl (stereo not drawn) [KHG24823, [2-(1-adamantylimino)-3-isopropyl-1,3-thiazolidine-4-yl]-N-(4-chlorophenyl)-acetamide hydrochloride]
46.5% | 246 °C | CC(C)N1C(=NC23CC4CC(CC(C4)C2)C3)SCC1CC(=O)Nc1ccc(C(F)(F)F)cc1.Cl (stereo not drawn) [KHG24826, [2-(1-adamantylimino)-3-isopropyl-1,3-thiazolidine-4-yl]-N-(4-trifluoromethylphenyl)-acetamide hydrochloride]
35.4% | 233 °C | CC(C)N1C(=NC23CC4CC(CC(C4)C2)C3)SCC1CC(=O)Nc1cc(C(F)(F)F)cc(C(F)(F)F)c1.Cl (stereo not drawn) [KHG24828, [2-(1-adamantylimino)-3-isopropyl-1,3-thiazolidine-4-yl]-N-(3,5-ditrifluoromethylphenyl)-acetamide hydrochloride]
69% | 227 °C | CC(C)N1C(=NC23CC4CC(CC(C4)C2)C3)SCC1CC(=O)Nc1ccc(CF)cc1.Cl (stereo not drawn) [KHG24829, [2-(1-adamantylimino)-3-isopropyl-1,3-thiazolidine-4-yl]-N-(4-fluoromethylphenyl)-acetamide hydrochloride]
57% | 220 °C | Cc1ccc(NC(=O)CC2CSC(=NC34CC5CC(CC(C5)C3)C4)N2C(C)C)cc1.Cl (stereo not drawn) [KHG24831, [2-(1-adamantylimino)-3-isopropyl-1,3-thiazolidine-4-yl]-N-(4-methylphenyl)-acetamide hydrochloride]
46.5% | 171 °C | CCc1ccc(NC(=O)CC2CSC(=NC34CC5CC(CC(C5)C3)C4)N2C(C)C)cc1.Cl (stereo not drawn) [KHG24832, [2-(1-adamantylimino)-3-isopropyl-1,3-thiazolidine-4-yl]-N-(4-ethylphenyl)-acetamide hydrochloride]
37% | 164 °C | CC(C)N1C(=NC23CC4CC(CC(C4)C2)C3)SCC1CC(=O)Nc1ccc(Oc2ccccc2)cc1.Cl (stereo not drawn) [KHG24833, [2-(1-adamantylimino)-3-isopropyl-1,3-thiazolidine-4-yl]-N-(4-phenoxyphenyl)-acetamide hydrochloride]
65.7% | 228 °C | CC(C)N1C(=NC23CC4CC(CC(C4)C2)C3)SCC1CC(=O)Nc1ccc(Cl)cc1F.Cl (stereo not drawn) [KHG24834, [2-(1-adamantylimino)-3-isopropyl-1,3-thiazolidine-4-yl]-N-(4-chloro-2-fluorophenyl)-acetamide hydrochloride]
55.2% | 116 °C | CC(C)N1C(=NC23CC4CC(CC(C4)C2)C3)SCC1CC(=O)Nc1cc(Cl)ccc1F.Cl (stereo not drawn) [KHG24835, [2-(1-adamantylimino)-3-isopropyl-1,3-thiazolidine-4-yl]-N-(5-chloro-2-fluorophenyl)-acetamide hydrochloride]
48.9% | 231 °C | Cc1ccc(NC(=O)CC2CSC(=NC34CC5CC(CC(C5)C3)C4)N2C(C)C)cc1Cl.Cl (stereo not drawn) [KHG24836, [2-(1-adamantylimino)-3-isopropyl-1,3-thiazolidine-4-yl]-N-(5-chloro-4-methylphenyl)-acetamide hydrochloride]
59.7% | 145 °C | CCCN1C(=NC23CC4CC(CC(C4)C2)C3)SCC1CC(=O)Nc1cc([N+](=O)[O-])ccc1F.Cl (stereo not drawn) [KHG24839, [2-(1-adamantylimino)-3-n-propyl-1,3-thiazolidine-4-yl]-N-(2-fluoro-5-nitrophenyl)-acetamide hydrochloride]
49.4% | 131 °C | CC(C)N1C(=NC23CC4CC(CC(C4)C2)C3)SCC1CC(=O)Nc1cc([N+](=O)[O-])ccc1F.Cl (stereo not drawn) [KHG24840, [2-(1-adamantylimino)-3-isopropyl-1,3-thiazolidine-4-yl]-N-(2-fluoro-5-nitrophenyl)-acetamide hydrochloride]

More lines, now with the values behind:

Compound | inhibition at 10 µM [1] | melting point
CCCCN1C(=NC23CC4CC(CC(C4)C2)C3)SCC1CC(=O)Nc1ccc(Br)cc1.Cl (stereo not drawn) [KHG24784, [2-(1-adamantylimino)-3-(n-butyl)-1,3-thiazolidine-4-yl]-N-(4-bromophenyl)-acetamide hydrochloride] | 36.6% | 172 °C
CCCCN1C(=NC23CC4CC(CC(C4)C2)C3)SCC1CC(=O)Nc1cc(Cl)ccc1F.Cl (stereo not drawn) [KHG24785, [2-(1-adamantylimino)-3-(n-butyl)-1,3-thiazolidine-4-yl]-N-(5-chloro-2-fluorophenyl)-acetamide hydrochloride] | 47.1% | 156 °C
Cl.O=C(CC1CSC(=NC23CC4CC(CC(C4)C2)C3)N1C1CC1)Nc1cc(C(F)(F)F)cc(C(F)(F)F)c1 (stereo not drawn) [KHG24792, [2-(1-adamantylimino)-3-cyclopropyl-1,3-thiazolidine-4-yl]-N-(3,5-ditrifluoromethylphenyl)-acetamide hydrochloride] | 67% | 258 °C
CCCCN1C(=NC23CC4CC(CC(C4)C2)C3)SCC1CC(=O)Nc1ccc(C(C)C)cc1.Cl (stereo not drawn) [KHG24795, [2-(1-adamantylimino)-3-(n-butyl)-1,3-thiazolidine-4-yl]-N-(4-isopropylphenyl)-acetamide hydrochloride] | 33.7% | 244 °C
CCc1ccc(NC(=O)CC2CSC(=NC34CC5CC(CC(C5)C3)C4)N2C2CC2)cc1.Cl (stereo not drawn) [KHG24799, [2-(1-adamantylimino)-3-cyclopropyl-1,3-thiazolidine-4-yl]-N-(4-ethylphenyl)-acetamide hydrochloride] | 63.4% | 266 °C
Cl.O=C(CC1CSC(=NC23CC4CC(CC(C4)C2)C3)N1C1CC1)Nc1ccc(Cl)cc1F (stereo not drawn) [KHG24801, [2-(1-adamantylimino)-3-cyclopropyl-1,3-thiazolidine-4-yl]-N-(4-chloro-2-fluorophenyl)-acetamide hydrochloride] | 63.8% | 261 °C
Cl.O=C(CC1CSC(=NC23CC4CC(CC(C4)C2)C3)N1C1CC1)Nc1cc(Cl)ccc1F (stereo not drawn) [KHG24802, [2-(1-adamantylimino)-3-cyclopropyl-1,3-thiazolidine-4-yl]-N-(5-chloro-2-fluorophenyl)-acetamide hydrochloride] | 62.4% | 244 °C
CCCN1C(=NC23CC4CC(CC(C4)C2)C3)SCC1CC(=O)Nc1cc(Cl)cc(Cl)c1.Cl (stereo not drawn) [KHG24805, [2-(1-adamantylimino)-3-n-propyl-1,3-thiazolidine-4-yl]-N-(3,5-dichlorophenyl)-acetamide hydrochloride] | 32.2% | 153 °C
CCCN1C(=NC23CC4CC(CC(C4)C2)C3)SCC1CC(=O)Nc1ccc(C(C)C)cc1.Cl (stereo not drawn) [KHG24807, [2-(1-adamantylimino)-3-n-propyl-1,3-thiazolidine-4-yl]-N-(4-isopropylphenyl)-acetamide hydrochloride] | 59.7% | 155 °C
CCCCc1ccc(NC(=O)CC2CSC(=NC34CC5CC(CC(C5)C3)C4)N2CCC)cc1.Cl (stereo not drawn) [KHG24808, [2-(1-adamantylimino)-3-n-propyl-1,3-thiazolidine-4-yl]-N-(4-n-butylphenyl)-acetamide hydrochloride] | 37.6% | 213 °C
CCCN1C(=NC23CC4CC(CC(C4)C2)C3)SCC1CC(=O)Nc1ccc(C(F)(F)F)cc1.Cl (stereo not drawn) [KHG24809, [2-(1-adamantylimino)-3-n-propyl-1,3-thiazolidine-4-yl]-N-(4-trifluoromethylphenyl)-acetamide hydrochloride] | 57.3% | 221 °C
CCCN1C(=NC23CC4CC(CC(C4)C2)C3)SCC1CC(=O)Nc1ccc(Br)cc1.Cl (stereo not drawn) [KHG24812, [2-(1-adamantylimino)-3-n-propyl-1,3-thiazolidine-4-yl]-N-(4-bromophenyl)-acetamide hydrochloride] | 53.8% | 228 °C
CCCN1C(=NC23CC4CC(CC(C4)C2)C3)SCC1CC(=O)Nc1ccc(C)cc1.Cl (stereo not drawn) [KHG24813, [2-(1-adamantylimino)-3-n-propyl-1,3-thiazolidine-4-yl]-N-(4-methylphenyl)-acetamide hydrochloride] | 61.6% | 239 °C
